Measurements reported in ChEMBL document CHEMBL1201862, “PubChem BioAssay data set” (2004).
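Exposure lasted 48 hours, with cells grown in 96-well plates and compounds tested at five concentrations. At the GI50, growth is halved.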 Activity calls are given as the source filed them. Cut-off read from the data, not from the text of the source: active = GI50 up to about 1.1 µM and inactive = higher. Where a SMILES comes first, the peptide text is derived from it. [ ]: non-standard residue; d: D form. The star is where a group is joined. Phe(4-NO2) = N[CH](Cc1ccc([N+](=O)[O-])cc1)C(=O)O; Cbz = O=C(OCc1ccccc1)*

Legend:
Assay in all cases: inhibition of tumour cell growth, NCI panel, 48 h
NCI-H522 = tested on: NCI-H522
A549 = tested on: A549
IGROV-1 = tested on: IGROV-1
EKVX = tested on: EKVX
A498 = tested on: A498
TK-10 = tested on: TK-10
OVCAR-4 = tested on: OVCAR-4
NCI-H23 = tested on: NCI-H23
MDA-MB-435 = tested on: MDA-MB-435
MDA-N = tested on: MDA-N
Hs-578T = tested on: Hs-578T
SK-MEL-5 = tested on: SK-MEL-5
OVCAR-8 = tested on: OVCAR-8
RXF 393 = tested on: RXF 393
KM12 = tested on: KM12
SF-295 = tested on: SF-295
SK-OV-3 = tested on: SK-OV-3
HT-29 = tested on: HT-29
LOX IMVI = tested on: LOX IMVI

Compound | GI50 (NCI-H522) | GI50 (A549) | GI50 (IGROV-1) | GI50 (EKVX) | GI50 (A498) | GI50 (TK-10) | GI50 (OVCAR-4) | GI50 (NCI-H23) | GI50 (MDA-MB-435) | GI50 (MDA-N) | GI50 (Hs-578T) | GI50 (SK-MEL-5) | GI50 (OVCAR-8) | GI50 (RXF 393) | GI50 (KM12) | GI50 (SF-295) | GI50 (SK-OV-3) | GI50 (HT-29) | GI50 (LOX IMVI)
CC1=NN(c2nc(N)nc(-c3cc4ccccc4oc3=N)n2)C(C)(C)C1 | 20.6 µM (inactive) | 19.5 µM (inactive) | 15.3 µM (inactive) | 14.7 µM (inactive) | 27.7 µM (inactive) | 23.4 µM (inactive) | 17.4 µM (inactive) | 16.1 µM (inactive) | 19.7 µM (inactive) | 16.5 µM (inactive) | 20.5 µM (inactive) | 16.8 µM (inactive) | 26.1 µM (inactive) | 20.7 µM (inactive) | 17.7 µM (inactive) | 18.2 µM (inactive) | 18.8 µM (inactive) | 19.7 µM (inactive) | –
Cc1cc(O)cc(O)c1C(=O)O[C@]1(C)C(=O)C=C2C=C(/C=C/C(=O)O)OC=C2C1=O | – | > 100 µM (inactive) | > 100 µM (inactive) | > 100 µM (inactive) | > 100 µM (inactive) | 45.6 µM (inactive) | > 100 µM (inactive) | > 100 µM (inactive) | > 100 µM (inactive) | > 100 µM (inactive) | > 100 µM (inactive) | > 100 µM (inactive) | > 100 µM (inactive) | > 100 µM (inactive) | 41.7 µM (inactive) | > 100 µM (inactive) | > 100 µM (inactive) | 94.4 µM (inactive) | 37.2 µM (inactive)
Cc1nc(N/N=C/c2ccccc2Cl)[nH]c(=O)c1CCO | 17.9 µM (inactive) | > 100 µM (inactive) | 34 µM (inactive) | 86.9 µM (inactive) | – | 76 µM (inactive) | 87.3 µM (inactive) | 35.8 µM (inactive) | > 100 µM (inactive) | > 100 µM (inactive) | 29.4 µM (inactive) | > 100 µM (inactive) | 22 µM (inactive) | 25.9 µM (inactive) | 59.7 µM (inactive) | 25.2 µM (inactive) | 23.1 µM (inactive) | > 100 µM (inactive) | > 100 µM (inactive)
CC(N/N=C(\S)N1CCN(c2ccccn2)CC1)c1cccc[n+]1[O-] (stereo not drawn) | 2.12 µM (inactive) | 8.65 µM (inactive) | 43.8 µM (inactive) | 6.47 µM (inactive) | – | 32 µM (inactive) | 14 µM (inactive) | 28.2 µM (inactive) | 25.3 µM (inactive) | 18.4 µM (inactive) | 85.7 µM (inactive) | 12.5 µM (inactive) | 6.9 µM (inactive) | 16.2 µM (inactive) | 52.4 µM (inactive) | 12.3 µM (inactive) | – | 0.661 µM (active) | 8.17 µM (inactive)
CN(C)c1ccc(/C=C(\C#N)c2nc(-c3cc4ccccc4oc3=O)cs2)cc1 | 6.75 µM (inactive) | > 50 µM (inactive) | 15.4 µM (inactive) | > 50 µM (inactive) | – | 8.95 µM (inactive) | 24.9 µM (inactive) | – | > 50 µM (inactive) | > 50 µM (inactive) | 13.7 µM (inactive) | > 50 µM (inactive) | 20.3 µM (inactive) | 12.3 µM (inactive) | > 50 µM (inactive) | 10.6 µM (inactive) | 19.9 µM (inactive) | > 50 µM (inactive) | > 50 µM (inactive)
CCCCCCOP(=O)(OCCCCCC)OC(C(=O)OC)C(F)(F)F (stereo not drawn) | > 100 µM (inactive) | > 100 µM (inactive) | > 100 µM (inactive) | > 100 µM (inactive) | – | > 100 µM (inactive) | > 100 µM (inactive) | > 100 µM (inactive) | > 100 µM (inactive) | > 100 µM (inactive) | > 100 µM (inactive) | > 100 µM (inactive) | > 100 µM (inactive) | – | > 100 µM (inactive) | > 100 µM (inactive) | > 100 µM (inactive) | > 100 µM (inactive) | > 100 µM (inactive)
O=c1cc(-c2ccccc2)c2ccc(O)c(CN(CCCl)CCCl)c2o1 | 14.7 µM (inactive) | 16.1 µM (inactive) | 15.5 µM (inactive) | 25.5 µM (inactive) | 19.1 µM (inactive) | – | 34.8 µM (inactive) | 19.5 µM (inactive) | 19.9 µM (inactive) | 17.6 µM (inactive) | 24.9 µM (inactive) | 16.9 µM (inactive) | 15.8 µM (inactive) | 14 µM (inactive) | 17.9 µM (inactive) | 11 µM (inactive) | – | 10.3 µM (inactive) | 8.26 µM (inactive)
COC(=O)c1c(OC)cc2cc3c(c(O)c2c1C)C(=O)C1(O)C(=O)C=C(OC)C(OC(=O)CC(C)N)=C1C3=O (stereo not drawn) | 12.1 µM (inactive) | 18.6 µM (inactive) | 13.6 µM (inactive) | 20 µM (inactive) | – | 22.1 µM (inactive) | 18.3 µM (inactive) | 8.95 µM (inactive) | 41.2 µM (inactive) | > 100 µM (inactive) | 7.52 µM (inactive) | 26.9 µM (inactive) | 11.9 µM (inactive) | – | 5.64 µM (inactive) | 7.69 µM (inactive) | – | 4.88 µM (inactive) | 8.49 µM (inactive)
N#Cc1nc2cc(Cl)ccc2nc1N1CCN(c2ccc([N+](=O)[O-])cc2)CC1 | – | > 100 µM (inactive) | – | > 100 µM (inactive) | > 100 µM (inactive) | > 100 µM (inactive) | > 100 µM (inactive) | > 100 µM (inactive) | > 100 µM (inactive) | > 100 µM (inactive) | > 100 µM (inactive) | > 100 µM (inactive) | > 100 µM (inactive) | > 100 µM (inactive) | > 100 µM (inactive) | > 100 µM (inactive) | > 100 µM (inactive) | > 100 µM (inactive) | –
O=c1cc(/N=N\c2ccc(Br)cc2)[nH]c(=S)[nH]1 | 15.5 µM (inactive) | > 100 µM (inactive) | 53.1 µM (inactive) | 19.8 µM (inactive) | – | 17.3 µM (inactive) | 18.1 µM (inactive) | 32.7 µM (inactive) | 19.7 µM (inactive) | 49.5 µM (inactive) | 32.7 µM (inactive) | 57.1 µM (inactive) | 23.1 µM (inactive) | 16.9 µM (inactive) | 45.1 µM (inactive) | > 100 µM (inactive) | > 100 µM (inactive) | 18.4 µM (inactive) | 15.3 µM (inactive)
COc1cc(/C=N/n2c(C)n[nH]c2=O)cc(OC)c1OC | – | > 100 µM (inactive) | – | 32.6 µM (inactive) | 23.4 µM (inactive) | – | > 100 µM (inactive) | > 100 µM (inactive) | 62.5 µM (inactive) | > 100 µM (inactive) | 0.583 µM (active) | – | > 100 µM (inactive) | 27.4 µM (inactive) | 60.1 µM (inactive) | > 100 µM (inactive) | > 100 µM (inactive) | 90.4 µM (inactive) | –
COc1cc(Cc2cc3c(c(C(=O)O)c2Br)OCO3)cc(OC)c1OC | – | > 100 µM (inactive) | > 100 µM (inactive) | > 100 µM (inactive) | > 100 µM (inactive) | > 100 µM (inactive) | > 100 µM (inactive) | > 100 µM (inactive) | 49.9 µM (inactive) | 23.8 µM (inactive) | > 100 µM (inactive) | 51.1 µM (inactive) | > 100 µM (inactive) | – | 39.9 µM (inactive) | > 100 µM (inactive) | > 100 µM (inactive) | > 100 µM (inactive) | 83.8 µM (inactive)
CCSCC(=O)N1CCc2c([nH]c3ccccc23)C1=O | 64.4 µM (inactive) | > 100 µM (inactive) | > 100 µM (inactive) | 12.6 µM (inactive) | – | > 100 µM (inactive) | > 100 µM (inactive) | > 100 µM (inactive) | > 100 µM (inactive) | > 100 µM (inactive) | 23.2 µM (inactive) | > 100 µM (inactive) | > 100 µM (inactive) | > 100 µM (inactive) | > 100 µM (inactive) | > 100 µM (inactive) | > 100 µM (inactive) | > 100 µM (inactive) | > 100 µM (inactive)
CCOC(=O)CCC(NC(=O)OCc1ccccc1)C(=O)NC(CCC(=O)OCC)C(=O)NC(Cc1ccc([N+](=O)[O-])cc1)C(=O)NC(CCC(=O)OCC)C(=O)NC(CCC(=O)OCC)C(=O)OCC (stereo not drawn) (Cbz-E(OEt)E(OEt)[Phe(4-NO2)]E(OEt)E(OEt)-OEt; configuration not given here) | > 100 µM (inactive) | > 100 µM (inactive) | > 100 µM (inactive) | > 100 µM (inactive) | – | > 100 µM (inactive) | > 100 µM (inactive) | > 100 µM (inactive) | > 100 µM (inactive) | > 100 µM (inactive) | > 100 µM (inactive) | > 100 µM (inactive) | > 100 µM (inactive) | > 100 µM (inactive) | > 100 µM (inactive) | > 100 µM (inactive) | > 100 µM (inactive) | > 100 µM (inactive) | > 100 µM (inactive)
Cc1nc2ccccc2n1Cc1nnc(N)o1 | > 100 µM (inactive) | 53.3 µM (inactive) | > 100 µM (inactive) | > 100 µM (inactive) | > 100 µM (inactive) | > 100 µM (inactive) | – | > 100 µM (inactive) | 0.1 µM (active) | > 100 µM (inactive) | > 100 µM (inactive) | > 100 µM (inactive) | > 100 µM (inactive) | > 100 µM (inactive) | > 100 µM (inactive) | > 100 µM (inactive) | > 100 µM (inactive) | > 100 µM (inactive) | > 100 µM (inactive)
O=c1n(N=[S+]([O-])(c2ccccc2)c2ccccc2)c(=O)n2n1C1C=CC2CC1 | – | > 100 µM (inactive) | > 100 µM (inactive) | > 100 µM (inactive) | > 100 µM (inactive) | > 100 µM (inactive) | – | > 100 µM (inactive) | > 100 µM (inactive) | > 100 µM (inactive) | > 100 µM (inactive) | > 100 µM (inactive) | > 100 µM (inactive) | – | > 100 µM (inactive) | > 100 µM (inactive) | > 100 µM (inactive) | > 100 µM (inactive) | > 100 µM (inactive)
